No end group written: not given here.
Test system: immature T-cell development (de novo antigens on T lymphocytes)
Test: T cell development in nude athymic mice (thymopentin vs 4-thiothymopentin)
Type: in vivo
Details: 20 micrograms per subject
Description: The incorporation of thioamide linkages at positions on the peptide backbone which are susceptible to degradation may be performed in order to increase the peptide's resistance to enzymatic digestion. This enhanced stability may afford greater biological activities to the peptides prolonged existence. For example, thymopentin, which is merely a biologically active fragment of the polypeptide thymopoietin, may be modified to elicit this response. […] A control group of nude athymic mice was administered 20 micrograms of thymopentin per subject according to well-known assay techniques. See, e.g., O. Archer, T. Pierce, B. Papermanter, and R. Good, "Reduced Antibody Response in Thymectomized Rabbits", Nature, 195, 191 (1962); D. Oscaba and J. Miller, "Evidence for a Humeral Thymus Factor Responsible for the Maturation of Immunological Faculty", Nature, 199, 653 (1963); P. Magrit, "T-Cell Development in Normal and Thymopentintreated Nude Mice", J. Exp. Med., 156, 1057 (1982). […]
The immunomodulatory action of thymopentin and 4-thiothymopentin on immature T-cell development by the expression of de novo antigens on T lymphocytes after daily subcutaneous injections for two weeks in four week old nude athymic mice was measured. […]

Substance: RKDVY [thymopentin]
- mean increase for the maturation of T cells and related immune responses: 43%

From patent US5138061A, “Thioacylating reagents” (BioChem Pharma Inc., priority 1989, dated 1992)
